According to patent publication US10667517B2, “2-(Het)aryl-substituted fused heterocycle derivatives as pesticides” (BAYER CROPSCIENCE AKTIENGESELLSCHSAFT, priority 2015, dated 2020):

Test: log P (neutral), HPLC on reversed-phase column (C 18), LC-MS neutral range
Format: physicochemical
Details: HPLC reversed-phase C 18, 55° C., pH 7.8, ammonium hydrogencarbonate/acetonitrile
Protocol: Temperature: 55° C. […] Called log P (neutral) in the table.
In the case of `O=C(CBr)c1nc(F)ccc1F` [2-Bromo-1-(3,6-difluoropyridin-2-yl)ethanone], the “log P (neutral)” value is reported as 1.95.
In the case of `CCS(=O)(=O)c1ccc(NC2COC2)nc1-c1nc2cc(C(F)(F)F)cnc2n1C` [Example I-26], the “log P (neutral)” value is reported as 2.27.
For `CCS(=O)(=O)c1ccc(-n2nccn2)nc1-c1cn2cnc(C(F)(F)F)cc2n1` [Example I-27], the “log P (neutral)” value was 2.28.
For `CCS(=O)(=O)c1ccc(-n2cncn2)nc1-c1cn2cnc(C(F)(F)F)cc2n1` [Example I-28], the “log P (neutral)” value was 2.19.
In the case of `CCS(=O)(=O)c1ccc(NC(=O)C(F)(F)F)nc1-c1nc2cc(C(F)(F)F)cnc2o1` [Example I-40], the “log P (neutral)” value is reported as 3.09.
For `CCS(=O)(=O)c1ccc(-n2cc(Cl)cn2)nc1-c1nc2cc(C(F)(F)F)cnc2o1` [Example I-41], the “log P (neutral)” value was 4.01.
In the case of `CCS(=O)(=O)c1ccc(-n2ccc(C(F)(F)F)n2)nc1-c1nc2cc(C(F)(F)F)cnc2o1` [Example I-42], the “log P (neutral)” value is reported as 4.17.
In the case of `CCS(=O)(=O)c1ccc(-n2cncn2)nc1-c1nc2cc(C(F)(F)F)nnc2n1C` [Example I-43], the “log P (neutral)” value is reported as 2.08.
With `CCS(=O)(=O)c1ccc(-n2nccn2)nc1-c1nc2cc(C(F)(F)F)nnc2n1C` [Example I-44] the “log P (neutral)” value was 2.21.
For `CCS(=O)(=O)c1ccc(-n2cccn2)nc1-c1cn2cnc(C(F)(F)F)cc2n1` [Example I-46], the “log P (neutral)” value was 2.58.

Same assay, conditions: pH 7.8
In the case of `CCS(=O)(=O)c1ccc(-n2ccnc2)nc1-c1cn2cnc(C(F)(F)F)cc2n1` [Example I-45], the “log P (neutral)” value is reported as 2.07.

Same assay, conditions: reversed-phase HPLC column (C 18), pH 7.8, HPLC reversed-phase C 18, 55° C., pH 7.8, ammonium hydrogencarbonate/acetonitrile
In the case of `CC(=O)c1nc(F)ccc1F` [1-(3,6-Difluoropyridin-2-yl)ethanone], the chromatographic logP is reported as 1.24.
With `O=C(CBr)c1nc(F)ccc1F` [2-Bromo-1-(3,6-difluoropyridin-2-yl)ethanone] the chromatographic logP was 1.93.
For `CON(C)C(=O)c1nc(F)ccc1F` [3,6-Difluoro-N-methoxy-N-methylpyridine-2-carboxamide], the chromatographic logP was 1.05.
Work on `CCSc1ccc(Br)nc1C(=O)O` [6-Bromo-3-(ethylsulphanyl)pyridine-2-carboxylic acid] yielded a chromatographic logP of 1.79.
Compound `CCS(=O)(=O)c1ccc(-n2cc(Cl)cn2)nc1-c1cn2cc(C(F)(F)F)ncc2n1` [Example I-18, 2-[6-(4-Chloro-1H-pyrazol-1-yl)-3-(ethylsulphonyl)pyridin-2-yl]-6-(trifluoromethyl)imidazo[1,2-a]pyrazine] has a chromatographic logP of 3.44.
With `CCS(=O)(=O)c1ccc(NC(C)=O)nc1-c1nc2cc(C(F)(F)F)cnc2o1` [Example I-19, N-{5-(Ethylsulphonyl)-6-[6-(trifluoromethyl) [1,3]oxazolo[5,4-b]pyridin-2-yl]pyridin-2-yl}acetamide] the chromatographic logP was 2.44.
Work on `CCS(=O)(=O)c1ccc(C(=O)NC)nc1-c1nc2cc(C(F)(F)F)cnc2n1C` [Example I-34, 5-(Ethylsulphonyl)-N-methyl-6-[3-methyl-6-(trifluoromethyl)-3H-imidazo[4,5-b]pyridin-2-yl]pyridine-2-carboxamide] yielded a chromatographic logP of 2.36.
With `CCS(=O)(=O)c1ccc(-n2cc(Cl)cn2)nc1-c1nc2cc(C(F)(F)F)nnc2n1C` [Example I-35, 6-[6-(4-Chloropyrazol-1-yl)-3-ethylsulphonyl-2-pyridyl]-7-methyl-3-(trifluoromethyl)imidazo[4,5-c]pyridazine] the chromatographic logP was 3.38.
`CCS(=O)(=O)c1ccc(C(=O)NC)nc1-c1nc2cc(C(F)(F)F)nnc2n1C` [Example I-39, 5-(Ethylsulphonyl)-N-methyl-6-[7-methyl-3-(trifluoromethyl)-7H-imidazo[4,5-c]pyridazin-6-yl]pyridine-2-carboxamide] gave a chromatographic logP of 1.96.
For `Cn1c(-c2nc(F)ccc2F)nc2cc(C(F)(F)F)ccc21` [IX-1, 2-(3,6-Difluoropyridin-2-yl)-1-methyl-5-(trifluoromethyl)-1H-benzimidazole], the chromatographic logP was 2.83.
For `Cn1c(-c2nc(F)ccc2F)nc2cc(C(F)(F)F)cnc21` [IX-2, 2-(3,6-Difluoropyridin-2-yl)-3-methyl-6-(trifluoromethyl)-3H-imidazo[4,5-b]pyridine], the chromatographic logP was 2.72.
`Cn1c(-c2nc(Cl)ccc2Cl)nc2cc3c(cc21)OC(F)(F)O3` [IX-3, 6-(3,6-Dichloro-2-pyridyl)-2,2-difluoro-7-methyl-[1,3]dioxolo[4,5-f]benzimidazole] showed a chromatographic logP of 3.22.
In the case of `FC1(F)Oc2cc3nc(-c4nc(Cl)ccc4Cl)[nH]c3cc2O1` [IX-4, 6-(3,6-Dichloro-2-pyridyl)-2,2-difluoro-5H-[1,3]dioxolo[4,5-f]benzimidazole], the chromatographic logP is reported as 3.2.
`Fc1ccc(F)c(-c2cn3cnc(C(F)(F)F)cc3n2)n1` [IX-5, 2-(3,6-Difluoropyridin-2-yl)-7-(trifluoromethyl)imidazo[1,2-c]pyrimidine] gave a chromatographic logP of 2.02.
Work on `Cn1c(-c2nc(Cl)ccc2Cl)nc2cc(C(F)(F)F)nnc21` [IX-7, 6-(3,6-Dichloro-2-pyridyl)-7-methyl-3-(trifluoromethyl)imidazo[4,5-c]pyridazine] yielded a chromatographic logP of 2.65.
Compound `CCSc1ccc(Br)nc1C(=O)Nc1cc(C(F)(F)F)cnc1Cl` [LXIX-1, 6-Bromo-N-[2-chloro-5-(trifluoromethyl)pyridin-3-yl]-3-(ethylsulphanyl)pyridine-2-carboxamide] has a chromatographic logP of 5.27.
For `CCSc1ccc(SCC)c(-c2cn3cc(C(F)(F)F)ncc3n2)n1` [LXXI-1, 2-[3,6-Bis(ethylsulphanyl)pyridin-2-yl]-6-(trifluoromethyl)imidazo[1,2-a]pyrazine], the chromatographic logP was 4.
Compound `CCS(=O)(=O)c1ccc(S(=O)(=O)CC)c(-c2cn3cnc(C(F)(F)F)cc3n2)n1` [LXXIII-1, 2-[3,6-Bis(ethylsulphonyl)pyridin-2-yl]-7-(trifluoromethyl)imidazo[1,2-c]pyrimidine] has a chromatographic logP of 2.28.
Compound `CCS(=O)(=O)c1ccc(S(=O)(=O)CC)c(-c2cn3cc(C(F)(F)F)ncc3n2)n1` [LXXIII-2, 2-[3,6-Bis(ethylsulphonyl)pyridin-2-yl]-6-(trifluoromethyl)imidazo[1,2-a]pyrazine] has a chromatographic logP of 2.23.
Work on `CCSc1ccc(C(=O)OC)nc1-c1nc2cc(C(F)(F)F)cnc2n1C` [LXXIX-1, Methyl 5-(ethylsulphanyl)-6-[3-methyl-6-(trifluoromethyl)-3H-imidazo[4,5-b]pyridin-2-yl]pyridine-2-carboxylate] yielded a chromatographic logP of 3.25.
In the case of `COC(=O)c1ccc(Cl)c(-c2nc3cc(C(F)(F)F)cnc3n2C)n1` [LXXVIII-1, Methyl 5-chloro-6-[3-methyl-6-(trifluoromethyl)-3H-imidazo[4,5-b]pyridin-2-yl]pyridine-2-carboxylate], the chromatographic logP is reported as 2.7.
`CCS(=O)(=O)c1ccc(C(=O)OC)nc1-c1nc2cc(C(F)(F)F)cnc2n1C` [LXXX-1, Methyl 5-(ethylsulphonyl)-6-[3-methyl-6-(trifluoromethyl)-3H-imidazo[4,5-b]pyridin-2-yl]pyridine-2-carboxylate] gave a chromatographic logP of 2.61.
`CCS(=O)(=O)c1ccc(C(=O)OC)nc1-c1nc2cc(C(F)(F)F)nnc2n1C` [LXXX-2, Methyl 5-(ethylsulphonyl)-6-[7-methyl-3-(trifluoromethyl)-7H-imidazo[4,5-c]pyridazin-6-yl]pyridine-2-carboxylate] showed a chromatographic logP of 2.19.
`CCSc1ccc(F)nc1-c1nc2cc(C(F)(F)F)ccc2n1C` [XI-1, 2-[3-(Ethylsulphanyl)-6-fluoropyridin-2-yl]-1-methyl-5-(trifluoromethyl)-1H-benzimidazole] showed a chromatographic logP of 3.44.
In the case of `CCSc1ccc(F)nc1-c1nc2cc(C(F)(F)F)cnc2n1C` [XI-2, 2-[3-(Ethylsulphanyl)-6-fluoropyridin-2-yl]-3-methyl-6-(trifluoromethyl)-3H-imidazo[4,5-b]pyridine], the chromatographic logP is reported as 3.45.
Compound `CCSc1ccc(Cl)nc1-c1nc2cc3c(cc2n1C)OC(F)(F)O3` [XI-3, 6-(6-Chloro-3-ethylsulphanyl-2-pyridyl)-2,2-difluoro-7-methyl-[1,3]dioxolo[4,5-f]benzimidazole] has a chromatographic logP of 3.8.
In the case of `CCSc1ccc(F)nc1-c1cn2cnc(C(F)(F)F)cc2n1` [XI-4, 2-[3-(Ethylsulphanyl)-6-fluoropyridin-2-yl]-7-(trifluoromethyl)imidazo[1,2-c]pyrimidine], the chromatographic logP is reported as 2.78.
With `CCSc1ccc(Br)nc1-c1nc2cc(C(F)(F)F)cnc2o1` [XI-5, 2-[6-Bromo-3-(ethylsulphanyl)pyridin-2-yl]-6-(trifluoromethyl)[1,3]oxazolo[5,4-b]pyridine] the chromatographic logP was 4.16.
In the case of `CCSc1ccc(Cl)nc1-c1nc2cc(C(F)(F)F)nnc2n1C` [XI-6, 6-(6-Chloro-3-ethylsulphanyl-2-pyridyl)-7-methyl-3-(trifluoromethyl)imidazo[4,5-c]pyridazine], the chromatographic logP is reported as 3.28.
Compound `CCS(=O)(=O)c1ccc(F)nc1-c1nc2cc(C(F)(F)F)ccc2n1C` [XIII-1, 2-[3-(Ethylsulphonyl)-6-fluoropyridin-2-yl]-1-methyl-5-(trifluoromethyl)-1H-benzimidazole] has a chromatographic logP of 2.96.
In the case of `CCS(=O)(=O)c1ccc(F)nc1-c1nc2cc(C(F)(F)F)cnc2n1C` [XIII-2, 2-[3-(Ethylsulphonyl)-6-fluoropyridin-2-yl]-3-methyl-6-(trifluoromethyl)-3H-imidazo[4,5-b]pyridine], the chromatographic logP is reported as 2.8.
Work on `CCS(=O)(=O)c1ccc(Cl)nc1-c1nc2cc3c(cc2n1C)OC(F)(F)O3` [XIII-3, 6-(6-Chloro-3-ethylsulphonyl-2-pyridyl)-2,2-difluoro-7-methyl-[1,3]dioxolo[4,5-f]benzimidazole] yielded a chromatographic logP of 3.2.
Work on `CCS(=O)(=O)c1ccc(Cl)nc1-c1nc2cc(C(F)(F)F)nnc2n1C` [XIII-5, 6-(6-Chloro-3-ethylsulphonyl-2-pyridyl)-7-methyl-3-(trifluoromethyl)imidazo[4,5-c]pyridazine] yielded a chromatographic logP of 2.6.
